Source: patent US20160038454A1, “INTRAVENOUS FORMULATIONS OF […] AS IMMUNOMODULATORS AND […] AGENTS” (priority 2013, published 2016)
Where two headings read alike, the source gives them in different places.

Experiments:
[1] = test system: rat model of PD; conditions: 0.5-1 μg/kg; Cheng et al., 2002; cited from earlier work
[2] = test system: primary cultured rat mesencephalic neurons; conditions: Li et al., 2003; cited from earlier work
[3] = test system: IL-2 production by Jurkat cells; conditions: cited from earlier work
[4] = test system: human T cell lymphoma (Jurkat) cells; conditions: cited from earlier work
[5] = Conversion to triptolide using human serum; assay type: in vitro ADME
Text: (Xia Zhi Lin and Zhen You Lan, Haematologica, 93:14 (2008)).

[6] = test system: bleomycin-induced PF; conditions: G. Krishna et al., 2001; cited from earlier work
[7] = test system: IL-2 production by Jurkat cells; assay: cells; assay type: cell-based, human; conditions: for IC50: read-out: Immunosuppression IL-2 (IC50)
Experimental: Test samples can be diluted to 1 mM in complete tissue culture medium. Aliquots are placed in microculture plates coated with anti-CD3 antibody (used to stimulate the production of IL-2 by Jurkat cells), and serial dilutions are prepared so that the final concentration encompass the range of 0.001 to 10,000 nM in log increments. Cells from an exponentially expanding culture of Jurkat human T cell line (#TIB-152 obtained from American Type Culture Collection, Manassas, Va.) are harvested, washed once by centrifugation, re-suspended in complete tissue culture medium, and diluted to a concentration of 2×10^6 cells/ml. A volume of 50 μl of Jurkat cells (1×10^5 cells) is added to wells containing 100 μl of the diluted compounds, 50 μl of PMA (10 ng/ml) is added to each well, and the plates are incubated at 37° C. in a 5% CO2 incubator. After 24 hours, the plates are centrifuged to pellet the cells, 150 μl of supernatant is removed from each well, and the samples are stored at −20° C. The stored supernatants are analyzed for human IL-2 concentration using the Luminex 100 (Luminex Corporation, Austin, Tex.), Luminex microspheres coupled with anti-IL-2 capture antibody, and fluorochrome-coupled anti-IL-2 detection antibody. The data are expressed as pg/ml of IL-2.

[8] = TK: plasma triptolide levels, Calvert study (emulsion); assay type: in vivo, rodents; conditions: for Plasma Triptolide Concentration: 0.15 mg/kg (emulsion)
Experimental: Triptolide prodrugs are generally believed to be safer than triptolide. […] Triptolide prodrugs as an emulsion formulation are believed to have a toxicokinetic profile characterized by a flat AUC with a minimized Cmax. [In conjunction, it was postulated that a sustained inhibition of RNA polymerase is needed for optimum efficacy which in turn requires a pharmcokinetic profile of constant exposure to drug]. […] The no effect dose (“NOAEL”) of PG796(MRx102) again exceeded 1.5 mg/kg/day intravenously for seven days in rodents confirming the initial results. It is interesting to ask why a prodrug of triptolide would be safer than the natural product itself; while not wishing to be bound by theory, perhaps the answer lies in the pharmacokinetic profile of triptolide administered either directly or released from its carrier, PG796(MRx102). […] It also remained above the therapeutic levels (shown as a thick line without symbols). The difference in the Cmax/AUC profile of PG796(MRx102) vs. triptolide is believed to be due to the physiochemical properties of the lipid prodrug/emulsion formulation combination. In general, triptolide prodrugs having a cLogP greater than 0.5 are more lipid-soluble than water soluble and are expected to take longer to convert to the drug form; such characteristics may yield a flatter conversion profile and less of a drug-release Cmax spike.
TK comparison of triptolide levels in Calvert and SRI studies—Males and Females

[9] = molecular target: T1, human XPB (also known as ERCC3) (Homo sapiens, UniProt P19447); conditions: Titov et al. 2011; cited from earlier work
T1 sequence (P19447 1-782): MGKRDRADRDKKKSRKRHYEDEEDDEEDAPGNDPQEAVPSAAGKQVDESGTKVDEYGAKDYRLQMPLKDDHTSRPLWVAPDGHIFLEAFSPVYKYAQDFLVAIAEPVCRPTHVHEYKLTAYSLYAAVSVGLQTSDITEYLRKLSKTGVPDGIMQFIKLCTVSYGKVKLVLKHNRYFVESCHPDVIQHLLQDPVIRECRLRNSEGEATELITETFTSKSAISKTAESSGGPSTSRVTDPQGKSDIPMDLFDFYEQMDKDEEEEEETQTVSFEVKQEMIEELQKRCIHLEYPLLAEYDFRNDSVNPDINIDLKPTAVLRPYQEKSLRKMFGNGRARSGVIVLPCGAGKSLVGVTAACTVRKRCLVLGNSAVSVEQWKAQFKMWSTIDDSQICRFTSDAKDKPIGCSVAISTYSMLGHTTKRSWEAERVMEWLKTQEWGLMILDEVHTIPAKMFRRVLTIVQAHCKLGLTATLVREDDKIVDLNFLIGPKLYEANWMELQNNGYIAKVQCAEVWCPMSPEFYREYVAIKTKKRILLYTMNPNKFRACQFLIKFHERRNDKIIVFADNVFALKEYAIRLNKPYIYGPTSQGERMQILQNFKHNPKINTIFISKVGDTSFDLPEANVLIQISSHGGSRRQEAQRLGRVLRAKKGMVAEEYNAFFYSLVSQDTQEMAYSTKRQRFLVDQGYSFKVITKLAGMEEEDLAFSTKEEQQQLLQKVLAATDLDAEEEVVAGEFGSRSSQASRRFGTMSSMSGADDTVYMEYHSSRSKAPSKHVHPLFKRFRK

[10] = test system: PC12 cells; conditions: cited from earlier work
[11] = test system: lipopolysaccharide (LPS)-activated microglial activity; conditions: Zhou et al., 2003; cited from earlier work
[12] = test system: primary mesencephalic neuron/glia mixed culture; conditions: Li et al., 2004; cited from earlier work
[13] = in vitro; assay type: cell-based, human; conditions: human; Jurkat cells; test compounds incubated in serum for 24 hrs; read-out: Viability/Cytotoxicity MTT (ED50)
Experimental: (§1) Test compounds may be dissolved in DMSO at a concentration of 20 mM. Further dilutions may be done in RPMI1640 medium (GIBCO, Rockville, Md.) supplemented with 10% Fetal Calf Serum (HyClone Laboratories, Logan, Utah).
(§2) Cytotoxicity of the compounds is determined in a standard MTT assay using Cell Proliferation Kit I (#1 465 007, Roche Diagnostics, Mannheim, Germany). Briefly, human T cell lymphoma (Jurkat) cells (4×10^5 per well) are cultured for 24 h, in 96-well tissue culture plates, in the presence of serial three-fold dilutions of test compounds or medium containing the same concentration of DMSO as in the test samples at each dilution point. The cultures are then supplemented with 10 μl/well MTT reagent for 4 h and then with 0.1 ml/well solubilizing reagent for an additional 16 h. Optical density at 570 nm (OD570) is measured on a ThermoScan microplate reader (Molecular Devices, Menlo Park, Calif.).

[14] = test system: human T cell lymphoma (Jurkat) cells; assay: in vitro; assay type: cell-based
Experimental: as §1, §2

[15] = test system: patients with AML; conditions: given intravenously; Xia Zhi Lin and Zhen You Lan 2008; cited from earlier work
[16] = FIG. 1, triptolide provided alone
[17] = incubated in human serum compared with mouse serum

CC(C)[C@]1(O)[C@H](Cl)[C@@H]2O[C@]23[C@]2(O[C@H]2C[C@H]2C4=C(CC[C@@]23C)C(=O)OC4)[C@@H]1O [Tripchlorolide]
recovery of rats undergoing neurosurgery [1]: improves recovery
protection from neurotoxic lesion induced by 1-methyl-4-phenylpyridinium ion [2]: protects dopaminergic neurons

CC(C)[C@]12O[C@H]1[C@@H]1O[C@]13[C@]1(O[C@H]1C[C@H]1C4=C(CC[C@@]13C)C(=O)OC4)[C@H]2F [PG763, 14-deoxy-14α-fluoro triptolide]
inhibition of IL-2 (as reported in U.S. application 60/449,976) [3]: inhibition of IL-2
cytotoxicity in Jurkat cells (as reported in U.S. application 60/449,976) [4]: cytotoxicity in human T cell lymphoma (Jurkat) cells

CC(C)[C@]12O[C@H]1[C@@H]1O[C@]13[C@]1(O[C@H]1C[C@H]1C4=C(CC[C@@]13C)C(=O)OC4)[C@@H]2OC(=O)CCC(=O)[O-].[Na+] [PG490-88Na]
conversion to triptolide in human serum [5]: incompletely converted

14-succinimide ester of triptolide
bleomycin-induced PF [6]: block bleomycin-induced PF

triptolide [PG490]
IC50 ([7]; Jurkat cells, test compounds incubated in serum for 24 hrs): 4 nM
Plasma Triptolide Concentration ([8]; females, 0 hrs): 0 ng/mL
Plasma Triptolide Concentration ([8]; females, 0.25 hrs): 74.6 ng/mL
Plasma Triptolide Concentration ([8]; females, 0.5 hrs): 18.4 ng/mL
Plasma Triptolide Concentration ([8]; females, 1 hrs): 13.2 ng/mL
Plasma Triptolide Concentration ([8]; females, 2 hrs): 0 ng/mL
Plasma Triptolide Concentration ([8]; females, 24 hrs): 0 ng/mL
Plasma Triptolide Concentration ([8]; males, 0 hrs): 0 ng/mL
Plasma Triptolide Concentration ([8]; males, 0.25 hrs): 59.0 ng/mL
Plasma Triptolide Concentration ([8]; males, 0.5 hrs): 14.9 ng/mL
Plasma Triptolide Concentration ([8]; males, 1 hrs): 3.6 ng/mL
Plasma Triptolide Concentration ([8]; males, 2 hrs): 0 ng/mL
Plasma Triptolide Concentration ([8]; males, 24 hrs): 0 ng/mL
triptolide Cmax (in words) [8, 16]: very high Cmax
triptolide in circulation by two hours post-dose [8, 16]: none remained in circulation
DNA-dependent ATPase activity of XPB [9]: inhibit
binding to human XPB [9]: covalently bind
β-amyloid-induced apoptosis [10]: markedly inhibit
LPS-activated microglial activity (nitrite accumulation, TNF-α and IL-1β release) [11]: powerful inhibitory influence
LPS-induced decrease in 3H-dopamine uptake and loss of tyrosine hydroxylase-positive neurons [12]: attenuates

CC(C)[C@]12O[C@H]1[C@@H]1O[C@]13[C@@]1(OC(=O)O[C@H]21)[C@H](Cl)C[C@H]1C2=C(CC[C@@]13C)C(=O)OC2 [PG762]
IC50 ([7]; Homo sapiens, Jurkat, 24 h): 9 nM
EC50 at 24 h [13]: 60 nM
cytotoxic activity in MTT assay (in words) ([14]; Jurkat cells, comparison with triptolide or PG490-88): comparable potency

triptolide 14-succinate [PG490-88]
activity in IL-2 inhibition assay after incubation in human serum vs mouse serum [7, 17]: much less active
clinical activity in patients with AML [15]: promising activity
activity in MTT assay after incubation in human serum vs mouse serum [14, 17]: much less active
